Measurements taken from paper PMC9607599, “Dual Targeting Ligands—Histamine H3 Receptor Ligands with Monoamine Oxidase B Inhibitory Activity—In Vitro and In Vivo Evaluation” (Pharmaceutics, 2022).
Where “and” joins values, the source holds several entries; their conditions need not be identical. Equal entries are not always repeated.

Tests used:
Wistar rats = experiment: feeding behavior (food, water, urine) after sub-chronic administration in metabolic cages; format: in vivo, rat; conditions: 3 mg/kg s.c. for 6 days, treatment period value (vs pre-treatment)
Procedure: The compound 13 has been examined for its in vivo activity in rats. Male Wistar rats weighing 180–240 g at the beginning of the experiments were used for the study. Animals were individually housed in standard cages with liquid and food available ad libitum, under an artificial reversed 12-h light–dark cycle with light off at 7 a.m., temperature 21–22 °C and 60–65% humidity.
Before the start of the experiments, the animals were habituated for 7 days to the conditions in the animal facility. Pharmacological treatments were carried out in the dark phase of the cycle. During the drug administration, the rats were kept in metabolic cages (Tecniplast, Italy). After an additional one day adaptation, there was a 3-day pre-treatment phase.
(§1) The compound 13 was given to intact Wistar rats to verify its impact on the metabolism of biogenic amines in the brain (cerebral amines and their metabolites concentrations as well as activities of metabolizing enzymes). […] Both drugs (3 mg/kg body mass, dissolved in 0.9% NaCl) were given subcutaneously for 6 consecutive days. Control rats were injected with 200 μL of 0.9% NaCl.
The volumes of consumed food and water, as well as urine excretion, were recorded daily and expressed in g or mL per 100 g of body mass or mL per 24 h, respectively.
The final results are given as means with SEM calculated for each 24-h period, computed from 3-day (pre-treatment phase) or 6-day (pharmacological treatment) monitoring. All experimental procedures were undertaken according to EU directives and local ethical regulations.

[1] = molecular target: T1, MAO B in rat cerebral cortex (Rattus norvegicus, UniProt P19643); experiment: MAO B activity in cerebral cortex homogenates after sub-chronic administration (radioassay); format: in vivo; conditions: 3 mg/kg/day s.c. for 6 days
T1 construct: from tissue; host or cells: cerebral cortex homogenate of male Wistar rats
T1 sequence (P19643 1-520): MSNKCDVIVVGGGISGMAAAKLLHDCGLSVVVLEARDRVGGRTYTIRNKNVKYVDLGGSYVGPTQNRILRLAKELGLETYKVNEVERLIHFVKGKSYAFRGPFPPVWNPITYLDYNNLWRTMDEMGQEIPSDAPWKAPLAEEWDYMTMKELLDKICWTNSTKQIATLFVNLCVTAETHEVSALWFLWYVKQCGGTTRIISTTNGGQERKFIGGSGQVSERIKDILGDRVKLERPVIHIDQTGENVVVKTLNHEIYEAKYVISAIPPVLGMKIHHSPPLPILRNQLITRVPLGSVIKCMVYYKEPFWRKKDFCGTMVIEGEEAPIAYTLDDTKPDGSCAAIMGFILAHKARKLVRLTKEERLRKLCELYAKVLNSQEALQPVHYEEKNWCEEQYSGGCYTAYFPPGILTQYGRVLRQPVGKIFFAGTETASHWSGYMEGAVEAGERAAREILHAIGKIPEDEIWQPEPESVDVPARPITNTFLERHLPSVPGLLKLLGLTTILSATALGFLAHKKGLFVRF
Procedure: as §1
(§2) Tissues were collected and properly prepared for subsequent biochemical analyzes. The brain was quickly removed from the skull and the selected structures (hypothalamus, striatum, cerebral cortex) were dissected according to the method by Glowinsky and Iversen, immediately frozen in liquid nitrogen and kept at −80 °C until assayed.
(§3) MAO A and MAO B activities were estimated in cerebral homogenates with radioassays using 5-[2-^14C]-hydroxytryptamine binoxalate (final conc. 200 µM) and β-[ethyl-1-^14C]-phenylethylamine hydrochloride (final conc. 20 µM), as well as specific inhibitors—clorgyline and deprenyl (final conc. 10^−9 M), respectively.
(§4) The enzyme activities are expressed as pmol/min/mg protein. Protein concentration was analyzed by Lowry’s method.

[2] = molecular target: T2, MAO A in rat cerebral cortex (Rattus norvegicus, UniProt P21396); experiment: MAO A activity in cerebral cortex homogenates after sub-chronic administration (radioassay); format: in vivo; conditions: 3 mg/kg/day s.c. for 6 days
T2 construct: from tissue; host or cells: cerebral cortex homogenate of male Wistar rats
T2 sequence (P21396 1-526): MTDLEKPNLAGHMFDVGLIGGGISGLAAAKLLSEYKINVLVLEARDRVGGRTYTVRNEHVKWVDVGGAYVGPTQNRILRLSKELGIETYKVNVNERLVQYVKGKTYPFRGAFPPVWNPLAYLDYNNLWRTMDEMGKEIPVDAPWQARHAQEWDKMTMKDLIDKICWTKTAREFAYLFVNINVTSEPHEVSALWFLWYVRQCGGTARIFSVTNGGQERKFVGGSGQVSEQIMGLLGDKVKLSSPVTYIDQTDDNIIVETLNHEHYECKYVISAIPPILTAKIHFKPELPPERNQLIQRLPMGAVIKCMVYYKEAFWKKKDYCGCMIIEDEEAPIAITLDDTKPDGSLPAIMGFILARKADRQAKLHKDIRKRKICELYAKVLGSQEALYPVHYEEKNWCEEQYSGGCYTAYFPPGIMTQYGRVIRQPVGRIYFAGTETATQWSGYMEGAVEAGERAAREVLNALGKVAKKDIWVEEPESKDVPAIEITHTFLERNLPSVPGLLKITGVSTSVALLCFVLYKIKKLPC
Procedure: as §1, §2, §3, §4

[3] = molecular target: T3, HNMT in rat cerebral cortex (Rattus norvegicus, UniProt Q01984); experiment: histamine N-methyltransferase activity after sub-chronic administration (radioenzymatic); format: in vivo; conditions: 3 mg/kg/day s.c. for 6 days
T3 construct: from tissue; host or cells: cerebral cortex of male Wistar rats
T3 sequence (Q01984 whole entry): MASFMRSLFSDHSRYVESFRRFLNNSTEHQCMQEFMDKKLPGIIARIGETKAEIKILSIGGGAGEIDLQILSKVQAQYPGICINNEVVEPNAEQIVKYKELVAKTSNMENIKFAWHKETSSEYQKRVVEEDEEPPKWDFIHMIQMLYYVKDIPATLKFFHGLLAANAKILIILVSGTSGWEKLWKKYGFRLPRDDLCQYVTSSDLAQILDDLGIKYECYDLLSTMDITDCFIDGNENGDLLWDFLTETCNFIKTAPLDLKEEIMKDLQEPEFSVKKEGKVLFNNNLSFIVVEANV
Procedure: as §1, §2
Histamine N-methyltransferase activity was determined radioenzymatically according to Taylor and Snyder by measurements of radioactive N-tele-methylhistamine formed in a transmethylation reaction catalyzed by the enzyme, as previously described. S-adenosyl-L-(methyl-^14C)-methionine was used as a donor of methyl group.
as §4

SMILES | food consumption (Wistar rats) | urine output (Wistar rats) | water consumption (Wistar rats) | MAO B activity in cerebral cortex [1] | decline in MAO B activity in rat cerebral cortex ([1]; vs control) | inhibition at 3 mg/kg ([2]; rat, sc, data not shown) | HNMT activity [3] | MAO B activity vs control, in words [1] | MAO A activity vs control, in words [2]
CC1CCCN1CCCOc1ccc(C(C)(C)C)cc1.O=C(O)C(=O)O (stereo not shown) [Compound 13, 1-(3-(4-(tert-Butyl)phenoxy)propyl)-2-methylpyrrolidine hydrogen oxalate] | 8.61 ± 0.11 g/100 g bw | 8.90 ± 0.045 mL/24 h | 13.37 ± 0.31 mL/100 g bw/24 h | 48.38 ± 12.02 pmol/min/mg protein | 91.7% and > 90% | 12% | 40.09 ± 1.77 pmol/min/mg of protein |  | 
Clc1ccc(CCCOCCCN2CCCCC2)cc1 [Pitolisant, 3-(4-chlorophenyl)propyl 3-piperidinopropyl ether, reference compound] | 8.95 ± 0.14 g/100 g bw | 9.08 ± 0.49 mL/24 h | 14.16 ± 0.43 mL/100 g bw/24 h |  |  |  | 42.51 ± 1.40 pmol/min/mg of protein | close to that recorded in control animals | close to that recorded in control animals
